{"source": "patent US4200748A", "about": "“Pyrido[1',2':4,5][1,4]oxazino[2,3-b]quinoxalines and pyrrolo[1',2':4,5][1,4]oxazino[2,3-b]quinoxalines” (American Cyanamid Company, priority 1979, dated 1980)", "tested_on": "brain receptors (3H-diazepam binding)", "test": "Inhibition of the binding of 3H-diazepam to the brain receptors (rat frontal cortex P2-synaptosomal fraction)", "set-up": "species or system male albino rats of the Wistar strain", "conditions": "3H-diazepam 1.5 nM, pH 7.4, 20 minutes in ice; for % Inhibition of Diazepam Binding: test concentration not given; for IC50: inhibition of 3H-diazepam binding", "excerpt": "A test used to measure anxiolytic activity comprises measurement of the ability of test compounds to inhibit the binding of ^3 H-diazepam to the brain receptors of warm-blooded animals. The test is described by R. F. Squires in Nature, 266, No. 21, page 732 (April 1977). The animals used were male albino rats of the Wistar strain, weighing 150-200 g. each from Royalhart Farms. Diazepam (methyl-^3 H) was obtained from New England Nuclear. The test compounds were solubilized in either dimethylformamide, acetic acid, ethanol or hydrochloric acid. The frontal cortex of rats was homogenized gently in 20 volumes of ice-cold 0.32 M. sucrose, centrifuged twice at 1000 g. for 10 minutes and then recentrifuged at 30,000 g. for 20 minutes to produce a crude P2 -synaptosomal fraction. The P2 -fraction was rehomogenised, twice the original volume, in hypotonic 50 mM. Tris.HCl (pH 7.4). The binding assay consisted of 300 .parallel.l. of the P2 -fraction suspension (0.350 mg.), 100 .parallel.l. of test drug and 100 μl. of ^3 H-diazepam (1.5 nM.), which was added to 1.5 ml. of 50 mM. Tris.HCl (pH 7.4). Non-specific binding controls and total binding controls received 100 μl. of diazepam (3 μm.) and 100 μl. of deionized water, respectively, in place of the test compound. Incubation for 20 minutes proceeded in ice and was terminated by filtration, under vacuum, through Whatman GF/C glass fiber filters. The filters were washed twice with 5 ml. of ice-cold 50 mM. Tris.HCl (pH 7.4) and placed in scintillation vials. After drying at 50°-60° C. for 30 minutes, 10 ml. of Beckman Ready-Solve HP was added and the radioactivity determined in a Beckman Scintillation Counter.", "data": [{"smiles": "Clc1ccc2nc3c(nc2c1)N1CCCCC1CO3", "note": "(stereo not shown) [10-chloro-1,2,3,4,4a,5-hexahydropyrido[1',2':4,5][1,4]oxazino[2,3-b]quinoxaline]", "values": [{"measurement": "% Inhibition of Diazepam Binding", "result": 95, "unit": "%"}, {"measurement": "IC50", "result": 22, "unit": "nM"}]}, {"smiles": "CN(C)C=Nc1cccc2nc3c(nc12)N1CCCCC1CO3", "note": "(stereo not shown) [N'-(1,2,3,4,4a,5-hexahydropyrido[1',2':4,5][1,4]oxazino[2,3-b]quinoxalin-11-yl)-N,N-dimethylformamidine]", "values": [{"measurement": "% Inhibition of Diazepam Binding", "result": 96, "unit": "%"}, {"measurement": "IC50", "result": 55, "unit": "nM"}]}, {"smiles": "Clc1ccc2nc3c(nc2c1)OCC1CCCCN31", "note": "(stereo not shown) [9-Chloro-1,2,3,4,4a,5-hexahydropyrido[1',2':4,5][1,4]oxazino[2,3-b]quinoxaline]", "values": [{"measurement": "% Inhibition of Diazepam Binding", "result": 97, "unit": "%"}, {"measurement": "IC50", "result": 14, "unit": "nM"}]}, {"smiles": "c1ccc2nc3c(nc2c1)OCC1CCCN31", "note": "(single isomer, unassigned) [2,3,3a,4-Tetrahydro-1H-pyrrolo[1',2':4,5][1,4]oxazino[2,3-b]quinoxaline]", "values": [{"measurement": "% Inhibition of Diazepam Binding", "result": 87, "unit": "%"}, {"measurement": "IC50", "result": 87, "unit": "nM"}]}, {"smiles": "Nc1cccc2nc3c(nc12)N1CCCCC1CO3", "note": "(stereo not shown) [11-Amino-1,2,3,4,4a,5-hexahydropyrido[1',2':4,5][1,4]oxazino[2,3-b]quinoxaline]", "values": [{"measurement": "% Inhibition of Diazepam Binding", "result": 98, "unit": "%"}, {"measurement": "IC50", "result": 20, "unit": "nM"}]}, {"smiles": "O=[N+]([O-])c1cccc2nc3c(nc12)N1CCCCC1CO3", "note": "(stereo not shown) [1,2,3,4,4a,5-hexahydro-11-nitropyrido[1',2':4,5][1,4]oxazino[2,3-b]quinoxaline]", "values": [{"measurement": "% Inhibition of Diazepam Binding", "result": 72, "unit": "%"}, {"measurement": "IC50", "result": 210, "unit": "nM"}]}, {"smiles": "FC(F)(F)c1ccc2nc3c(nc2c1)OCC1CCCCN31", "note": "(stereo not shown) [1,2,3,4,4a,5-Hexahydro-9-trifluoromethylpyrido[1',2':4,5][1,4]oxazino[2,3-b]quinoxaline]", "values": [{"measurement": "% Inhibition of Diazepam Binding", "result": 90, "unit": "%"}, {"measurement": "IC50", "result": 352, "unit": "nM"}]}, {"smiles": "Nc1ccc2nc3c(nc2c1)OCC1CCCCN31", "note": "(stereo not shown) [9-Amino-1,2,3,4,4a,5-hexahydropyrido[1',2':4,5][1,4]oxazino[2,3-b]quinoxaline]", "values": [{"measurement": "% Inhibition of Diazepam Binding", "result": 93, "unit": "%"}, {"measurement": "IC50", "result": 39, "unit": "nM"}]}]}
